The values that follow come from US20130116231A1, “TYROSINE KINASE INHIBITORS” (Merck Sharp & Dohme Corp., priority 2010, published 2013).

A value given as a limit tells only on which side of the number the result lay.

One may read the IC50 as the concentration that gives 50% inhibition.

This test deals with T1, human c-Met (Homo sapiens, UniProt P08581).
T1 construct: Recombinant GST-tagged cytosolic domains of human c-Met; 6xHis; made in house; host or cells: Sf9 or Sf21 insect cells (baculovirus)
T1 sequence (P08581 956-1390 limits assumed): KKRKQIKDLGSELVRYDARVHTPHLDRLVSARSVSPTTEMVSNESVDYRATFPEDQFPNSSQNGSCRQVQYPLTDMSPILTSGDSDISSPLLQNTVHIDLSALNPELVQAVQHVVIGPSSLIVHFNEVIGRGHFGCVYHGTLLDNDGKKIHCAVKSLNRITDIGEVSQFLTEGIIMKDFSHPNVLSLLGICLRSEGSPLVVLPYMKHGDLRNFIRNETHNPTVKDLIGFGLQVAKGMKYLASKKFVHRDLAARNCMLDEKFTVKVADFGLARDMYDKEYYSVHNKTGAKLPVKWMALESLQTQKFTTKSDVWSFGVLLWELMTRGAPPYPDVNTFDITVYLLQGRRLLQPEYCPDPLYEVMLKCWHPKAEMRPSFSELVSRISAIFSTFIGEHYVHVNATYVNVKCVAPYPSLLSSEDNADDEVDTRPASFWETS
The test can be described thus: in vitro kinase assay (homogeneous time-resolved tyrosine kinase assay, METKA). The class given is biochemical. The settings on record: recombinant GST-tagged c-Met cytosolic domain, HTRF, 50 μM MgATP; read-out: Biological Activity (METKA IC50) Activity Code. The procedure, abridged: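 HTRF assay with GST-tagged cytosolic c-Met domain (0.2 nM), 0.5 μM biotinylated peptide, 50 μM MgATP, pH 7.4, 5% DMSO, 80 min at room temperature; Eu-anti-pTyr/SA-APC detection, IC50 by 4-parameter fit. Other kinases identical except enzyme level: mouse c-Met 0.2, Ron 2.5, KDR 8, IGFR 0.24, EGFR 0.24, FGFR 0.14, Mer 16, TrkA 8, Tie2 8 nM.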
For orientation: In TR-FRET formats the signal depends on donor and acceptor labels being close together.
For `COCCOc1cnc2ccc(OCc3nn(-c4cc(F)cc(F)c4)ccc3=O)cc2c1` [Example 31, 1-(3,5-difluorophenyl)-3-({[3-(2-methoxyethoxy)quinolin-6-yl]oxy}methyl)pyridazin-4(1H)-one], the IC50 was less than 0.1 µM.

For the compound `Cn1cc(-n2ccc(=O)c(COc3ccc4ncc(-n5cnnc5)cc4c3)n2)cn1` [Example 39, 1-(1-methyl-1H-pyrazol-4-yl)-3-({[3-(4H-1,2,4-triazol-4-yl)quinolin-6-yl]oxy}methyl)pyridazin-4(1H)-one], the IC50 was 0.1 to 1 µM. The result for `CCOc1cnc2ccc(C(C)Oc3nn(-c4cnn(C)c4)ccc3=O)cc2c1` (single isomer, unassigned) [Example 141, 3-[1-(3-ethoxyquinolin-6-yl)ethoxy]-1-(1-methyl-1H-pyrazol-4-yl)pyridazin-4(1H)-one] reads less than 0.1 µM; that for `CC(Oc1nn(-c2cnn(C)c2)ccc1=O)c1ccc2ncccc2c1` (single isomer, unassigned) [Example 139, 1-(1-methyl-1H-pyrazol-4-yl)-3-(1-quinolin-6-ylethoxy)pyridazin-4(1H)-one], 0.1 to 1 µM; that for `Cn1cc(-n2ccc(=O)c(COc3ccc4ncc(O)cc4c3)n2)cn1` [Example 61, 3-Hydroxy-6-{[1-(1-methyl-1H-pyrazol-4-yl)-4-oxo-1,4-dihydropyridazin-3-yl]methoxy}quinolinium chloride], less than 0.1 µM. The result for `COCCOC(=O)Nc1ccc(OCc2nn(-c3cnn(C)c3)ccc2=O)cc1` [Example 119, 2-methoxyethyl (4-{[1-(1-methyl-1H-pyrazol-4-yl)-4-oxo-1,4-dihydropyridazin-3-yl]methoxy}phenyl)carbamate] reads 1 to 3 µM.

In the case of `Cn1cc(-n2ccc(=O)c(CCc3ccnc4ccccc34)n2)cn1` [Example 54, 1-(1-methyl-1H-pyrazol-4-yl)-3-(2-quinolin-4-ylethyl)pyridazin-4(1H)-one], the half-maximal inhibitory concentration (IC50) was 1 to 3 µM. The result for `Cn1cc(-n2ccc(=O)c(COc3ccc4ncc(-c5cnn(C6CN(C(=O)OC(C)(C)C)C6)c5)cc4c3)n2)cn1` [Example 92, tert-Butyl 3-[4-(6-{[1-(1-methyl-1H-pyrazol-4-yl)-4-oxo-1,4-dihydropyridazin-3-yl]methoxy}quinolin-3-yl)-1H-pyrazol-1-yl]azetidine-1-carboxylate] reads less than 0.1 µM; that for `CCOc1cnc2ccc(NCc3nn(-c4cnn(C)c4)ccc3=O)cc2c1` [Example 103, 3-{[(3-ethoxyquinolin-6-yl)amino]methyl}-1-(1-methyl-1H-pyrazol-4-yl)pyridazin-4(1H)-one], 0.1 to 1 µM. The result for `COCCOc1ccnc2ccc(OCc3nn(-c4cnn(C)c4)ccc3=O)cc12` [Example 34, 3-({[4-(2-methoxyethoxy)quinolin-6-yl]oxy}methyl)-1-(1-methyl-1H-pyrazol-4-yl)pyridazin-4(1H)-one] reads 0.1 to 1 µM. The figure for `Cn1cc(-n2ccc(=O)c(COc3ccc4ncc5c(c4c3)OCCO5)n2)cn1` [Example 107, 3-[(2,3-dihydro[1,4]dioxino[2,3-c]quinolin-9-yloxy)methyl]-1-(1-methyl-1H-pyrazol-4-yl)pyridazin-4(1H)-one] is less than 0.1 µM; for `CCn1cc(-n2ccc(=O)c(COc3ccc4ncc(Oc5ccccn5)cc4c3)n2)cn1` [Example 67, 1-(1-ethyl-1H-pyrazol-4-yl)-3-({[3-(pyridin-2-yloxy)quinolin-6-yl]oxy}methyl)pyridazin-4(1H)-one] it is less than 0.1 µM; for `CCn1cc(-n2ccc(=O)c(OCc3ccc4ncccc4c3)n2)cn1` [Example 128, 1-(1-ethyl-1H-pyrazol-4-yl)-3-(quinolin-6-ylmethoxy)pyridazin-4(1H)-one] it is 0.1 to 1 µM. In the case of `Cn1cc(C(=O)Nc2cccc(OCc3nn(-c4cnn(C)c4)ccc3=O)c2)cn1` [Example 15, 1-Methyl-N-(3-{[1-(1-methyl-1H-pyrazol-4-yl)-4-oxo-1,4-dihydropyridazin-3-yl]methoxy}phenyl)-1H-pyrazole-4-carboxamide], the IC50 was in the range of 1 to 3 µM. The result for `Cn1cc(-n2ccc(=O)c(COc3ccc4nccc(Cl)c4c3)n2)cn1` [Example 97, 3-{[(4-Chloroquinolin-6-yl)oxy]methyl}-1-(1-methyl-1H-pyrazol-4-yl)pyridazin-4(1H)-one] reads less than 0.1 µM; that for `CCOc1cnc2ccc(OCc3nn(-c4cc(Cl)cc(C#N)c4)ccc3=O)cc2c1` [Example 45, 3-chloro-5-[3-{[(3-ethoxyquinolin-6-yl)oxy]methyl}-4-oxopyridazin-1(4H)-yl]benzonitrile], less than 0.1 µM. For `CC(Oc1ccc2ncccc2c1)c1nn(-c2cccc(Br)c2)ccc1=O` (single isomer, unassigned) [Example 113, 1-(3-bromophenyl)-3-[1-(quinolin-6-yloxy)ethyl]pyridazin-4(1H)-one], the IC50 lay in the range of 1 to 3 µM. The figure for `Cn1cc(-n2ccc(=O)c(COc3ccc(N)cc3)n2)cn1` [Example 115, 3-((4-aminophenoxy)methyl)-1-(1-methyl-1H-pyrazol-4-yl)pyridazin-4(1H)-one] is 0.1 to 1 µM. The result for `COc1ccnc2ccc(COc3nn(-c4cnn(C)c4)ccc3=O)cc12` [Example 137, 3-[(4-methoxyquinolin-6-yl)methoxy]-1-(1-methyl-1H-pyrazol-4-yl)pyridazin-4(1H)-one] reads 1 to 3 µM; that for `COc1cnc2ccc(C(C)Oc3nn(-c4cnn(C)c4)ccc3=O)cc2c1` (single isomer, unassigned) [Example 140, 3-[1-(3-methoxyquinolin-6-yl)ethoxy]-1-(1-methyl-1H-pyrazol-4-yl)pyridazin-4(1H)-one], less than 0.1 µM. As for `COc1cnc2ccc(OCc3nn(-c4cnn(C)c4)ccc3=O)cc2c1` [Example 35, 3-{[(3-methoxyquinolin-6-yl)oxy]methyl}-1-(1-methyl-1H-pyrazol-4-yl)pyridazin-4(1H)-one], the IC50 was less than 0.1 µM. The figure for `Cn1cc(-n2ccc(=O)c(COc3ccc4ncc(-c5cnn(C6COC6)c5)cc4c3)n2)cn1` [Example 96, 1-(1-Methyl-1H-pyrazol-4-yl)-3-[({3-[1-(oxetan-3-yl)-1H-pyrazol-4-yl]quinolin-6-yl}oxy)methyl]pyridazin-4(1H)-one] is less than 0.1 µM; for `Cn1cc(-n2ccc(=O)c(COc3ccc(NCCCCO)cc3)n2)cn1` [Example 116, 3-((4-(4-hydroxybutylamino)phenoxy)methyl)-1-(1-methyl-1H-pyrazol-4-yl)pyridazin-4(1H)-one] it is 1 to 3 µM. The figure for `CNC(=O)c1ccc(OCc2nn(-c3cnn(C)c3)ccc2=O)cc1` [Example 16, N-methyl-4-{[1-(1-methyl-1H-pyrazol-4-yl)-4-oxo-1,4-dihydropyridazin-3-yl]methoxy}benzamide] is 0.1 to 1 µM; for `CCOc1cnc2ccc(OCc3nn(-c4cc(F)cc(C#N)c4)ccc3=O)cc2c1` [Example 44, 3-[3-{[(3-ethoxyquinolin-6-yl)oxy]methyl}-4-oxopyridazin-1(4H)-yl]-5-fluorobenzonitrile] it is less than 0.1 µM. The figure for `CCn1cc(-n2ccc(=O)c(COc3ccc4ncc(-c5ccccc5F)cc4c3)n2)cn1` [Example 83, 1-(1-ethyl-1H-pyrazol-4-yl)-3-({[3-(2-fluorophenyl)quinolin-6-yl]oxy}methyl)pyridazin-4(1H)-one] is less than 0.1 µM; for `CCn1cc(-n2ccc(=O)c(COc3ccc4ncc(-c5ccc(S(C)(=O)=O)cc5)cc4c3)n2)cn1` [Example 76, 1-(1-Ethyl-1H-pyrazol-4-yl)-3-[({3-[4-(methylsulfonyl)phenyl]quinolin-6-yl}oxy)methyl]pyridazin-4(1H)-one] it is less than 0.1 µM.

For `Cn1cc(-n2ccc(=O)c(CNc3ccc4ncccc4c3)n2)cn1` [Example 104, 1-(1-Methyl-1H-pyrazol-4-yl)-3-[(quinolin-6-ylamino)methyl]pyridazin-4(1H)-one], the IC50 is less than 0.1 µM. Regarding `CCn1cc(-n2ccc(=O)c(COc3ccc4ncc(OC5CCOC5)cc4c3)n2)cn1` (centres unmarked) [Example 69, 1-(1-ethyl-1H-pyrazol-4-yl)-3-({[3-(tetrahydrofuran-3-yloxy)quinolin-6-yl]oxy}methyl)pyridazin-4(1H)-one], the IC50 was less than 0.1 µM. The result for `O=c1ccn(-c2cncc(Br)c2)nc1COc1ccc2ncccc2c1` [Example 21, 1-(5-bromopyridin-3-yl)-3-[(quinolin-6-yloxy)methyl] pyridazin-4(1H)-one] reads less than 0.1 µM; that for `CCn1cc(-n2ccc(=O)c(COc3ccc4ncc(OCCOC)cc4c3)n2)cn1` [Example 36, 1-(1-ethyl-1H-pyrazol-4-yl)-3-({[3-(2-methoxyethoxy)quinolin-6-yl]oxy}methyl)pyridazin-4(1H)-one], less than 0.1 µM; that for `CCOc1ccnc2ccc(OCc3nn(-c4cnn(C)c4)ccc3=O)cc12` [Example 43, 3-{[(4-Ethoxyquinolin-6-yl)oxy]methyl}-1-(1-methyl-1H-pyrazol-4-yl)pyridazin-4(1H)-one], less than 0.1 µM. The figure for `Cn1cc(-n2ccc(=O)c(COc3ccc4nccnc4c3)n2)cn1` [Example 11, 1-(1-methyl-1H-pyrazol-4-yl)-3-[(quinoxalin-6-yloxy)methyl] pyridazin-4(1H)-one] is less than 0.1 µM; for `Cn1cc(-c2cnc3ccc(COc4nn(-c5cnn(C)c5)ccc4=O)cc3c2)cn1` [Example 129, 1-(1-methyl-1H-pyrazol-4-yl)-3-{[3-(1-methyl-1H-pyrazol-4-yl)quinolin-6-yl]methoxy}pyridazin-4(1H)-one] it is less than 0.1 µM. As for `O=c1ccn(-c2cc(F)cc(F)c2)nc1COc1ccc2ncccc2c1` [Example 7, 1-(3,5-difluorophenyl)-3-[(quinolin-6-yloxy)methyl] pyridazin-4(1H)-one], the IC50 is less than 0.1 µM.
